Test results from ChEMBL document CHEMBL1201862, “PubChem BioAssay data set” (2004).
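Each compound was tested at five concentrations against cells in 96-well plates for 48 hours. GI50 is the concentration that inhibits growth by half.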 Active and inactive are the calls of the source. Rule as the data show it: active = GI50 up to about 1.1 µM and inactive = higher.

Legend:
Test in all cases: DTP human tumour cell line panel, 48 h
DU-145 = system: DU-145
UACC-257 = system: UACC-257
RPMI-8226 = system: RPMI-8226
SK-OV-3 = system: SK-OV-3
MOLT-4 = system: MOLT-4
CCRF-CEM = system: CCRF-CEM
SF-295 = system: SF-295
UACC-62 = system: UACC-62
Malme-3M = system: Malme-3M
MDA-MB-435 = system: MDA-MB-435
M14 = system: M14
A498 = system: A498
OVCAR-3 = system: OVCAR-3
UO-31 = system: UO-31
MDA-N = system: MDA-N
SF-539 = system: SF-539
KM12 = system: KM12
LOX IMVI = system: LOX IMVI
NCI-H522 = system: NCI-H522
SK-MEL-5 = system: SK-MEL-5

With `CN(C)CCNC(=O)c1cccc2c(NC(CCC(N)=O)C(=O)O)c3ccccc3nc12` (stereo not given) the GI50 (DU-145) was 19.5 µM (inactive), the GI50 (UACC-257) was 8.2 µM (inactive) and the GI50 (RPMI-8226) was 9.57 µM (inactive). For the same compound, the GI50 (SK-OV-3) was 9.95 µM (inactive), the GI50 (MOLT-4) was 3.29 µM (inactive) and the GI50 (CCRF-CEM) was 18.5 µM (inactive). For the same compound, the GI50 (SF-295) was 5.64 µM (inactive), the GI50 (UACC-62) was 19.9 µM (inactive) and the GI50 (Malme-3M) was 5.56 µM (inactive). For the same compound, the GI50 (MDA-MB-435) was 6.14 µM (inactive), the GI50 (M14) was 7.55 µM (inactive) and the GI50 (A498) was 16.2 µM (inactive). For the same compound, the GI50 (OVCAR-3) was 12.6 µM (inactive), the GI50 (UO-31) was 1.55 µM (inactive) and the GI50 (MDA-N) was 8.73 µM (inactive). For the same compound, the GI50 (SF-539) was 5.55 µM (inactive), the GI50 (KM12) was 7.78 µM (inactive) and the GI50 (LOX IMVI) was 5.48 µM (inactive). The GI50 (NCI-H522) was 5.75 µM (inactive) and the GI50 (SK-MEL-5) was 10.6 µM (inactive).

With `CO/N=C(/C(=O)OC)c1ccccc1COc1cccc(C(F)(F)F)c1` the GI50 (DU-145) was 26.5 µM (inactive), the GI50 (UACC-257) was 8.51 µM (inactive) and the GI50 (RPMI-8226) was 6.18 µM (inactive). For the same compound, the GI50 (SK-OV-3) was 38.9 µM (inactive), the GI50 (MOLT-4) was 10.6 µM (inactive) and the GI50 (CCRF-CEM) was 16 µM (inactive). For the same compound, the GI50 (SF-295) was 7.23 µM (inactive), the GI50 (UACC-62) was 18.2 µM (inactive) and the GI50 (Malme-3M) was 2.3 µM (inactive). The GI50 (MDA-MB-435) was 29.3 µM (inactive), the GI50 (M14) was 24.6 µM (inactive) and the GI50 (A498) was 43.5 µM (inactive). For the same compound, the GI50 (OVCAR-3) was 11.6 µM (inactive), the GI50 (UO-31) was 39.8 µM (inactive) and the GI50 (MDA-N) was 27.4 µM (inactive). For the same compound, the GI50 (SF-539) was 54.1 µM (inactive), the GI50 (KM12) was 18.8 µM (inactive) and the GI50 (LOX IMVI) was 22.9 µM (inactive). For the same compound, the GI50 (NCI-H522) was 20 µM (inactive) and the GI50 (SK-MEL-5) was 4.79 µM (inactive).

`COC(=O)/C=C/C(=O)Nc1cc(Cl)c(Cl)cc1CC(=O)N(C)[C@H]1CCCC[C@@H]1N1CCCC1` was tested, and the GI50 (DU-145) was 5.02 µM (inactive), the GI50 (UACC-257) was 3.05 µM (inactive) and the GI50 (RPMI-8226) was 2.63 µM (inactive). For the same compound, the GI50 (SK-OV-3) was 18.1 µM (inactive), the GI50 (MOLT-4) was 3.18 µM (inactive) and the GI50 (CCRF-CEM) was 2.79 µM (inactive). For the same compound, the GI50 (SF-295) was 18.3 µM (inactive), the GI50 (UACC-62) was 13.9 µM (inactive) and the GI50 (Malme-3M) was 6.41 µM (inactive). The GI50 (MDA-MB-435) was 5.61 µM (inactive), the GI50 (M14) was 7.41 µM (inactive) and the GI50 (A498) was 14.4 µM (inactive). For the same compound, the GI50 (OVCAR-3) was 3.27 µM (inactive), the GI50 (UO-31) was 4.52 µM (inactive) and the GI50 (MDA-N) was 6.61 µM (inactive). For the same compound, the GI50 (SF-539) was 5.04 µM (inactive), the GI50 (KM12) was 22.1 µM (inactive) and the GI50 (LOX IMVI) was 5.3 µM (inactive). The GI50 (NCI-H522) was 1.79 µM (inactive) and the GI50 (SK-MEL-5) was 8.67 µM (inactive).

For `CC(=O)OC1CCC2(C)C(=CCC3C4CCC5(OC6CC(C)CN(C(C)=O)C6C5C)C(C)=C4C(=O)C32)C1` (stereo not given), the GI50 (DU-145) was 30.8 µM (inactive), the GI50 (UACC-257) was 13.6 µM (inactive) and the GI50 (RPMI-8226) was 14.6 µM (inactive). For the same compound, the GI50 (SK-OV-3) was 26.5 µM (inactive), the GI50 (MOLT-4) was 5.53 µM (inactive) and the GI50 (CCRF-CEM) was > 100 µM (inactive). For the same compound, the GI50 (SF-295) was 19.1 µM (inactive), the GI50 (UACC-62) was 5.35 µM (inactive) and the GI50 (Malme-3M) was 15.2 µM (inactive). For the same compound, the GI50 (MDA-MB-435) was 15.3 µM (inactive), the GI50 (M14) was 12.7 µM (inactive) and the GI50 (A498) was 15.8 µM (inactive). For the same compound, the GI50 (OVCAR-3) was 18.8 µM (inactive), the GI50 (UO-31) was 31.9 µM (inactive) and the GI50 (MDA-N) was 23.6 µM (inactive). For the same compound, the GI50 (SF-539) was 20.4 µM (inactive), the GI50 (KM12) was 16.7 µM (inactive) and the GI50 (LOX IMVI) was 12 µM (inactive). For the same compound, the GI50 (NCI-H522) was 14.9 µM (inactive) and the GI50 (SK-MEL-5) was 10 µM (inactive).

In the case of `COC(OC)C1OC(CO)C(n2cc(C)c(=O)[nH]c2=O)C1O` (stereo not given), the GI50 (DU-145) is reported as > 100 µM (inactive), the GI50 (UACC-257) is reported as > 100 µM (inactive) and the GI50 (RPMI-8226) is reported as > 100 µM (inactive). The GI50 (SK-OV-3) was > 100 µM (inactive), the GI50 (MOLT-4) was > 100 µM (inactive) and the GI50 (CCRF-CEM) was > 100 µM (inactive). For the same compound, the GI50 (SF-295) was > 100 µM (inactive), the GI50 (UACC-62) was > 100 µM (inactive) and the GI50 (Malme-3M) was > 100 µM (inactive). For the same compound, the GI50 (MDA-MB-435) was > 100 µM (inactive), the GI50 (M14) was > 100 µM (inactive) and the GI50 (A498) was > 100 µM (inactive). For the same compound, the GI50 (OVCAR-3) was > 100 µM (inactive), the GI50 (UO-31) was > 100 µM (inactive) and the GI50 (MDA-N) was > 100 µM (inactive). The GI50 (SF-539) was > 100 µM (inactive), the GI50 (KM12) was > 100 µM (inactive) and the GI50 (LOX IMVI) was > 100 µM (inactive). For the same compound, the GI50 (NCI-H522) was > 100 µM (inactive) and the GI50 (SK-MEL-5) was > 100 µM (inactive).

`CCCCCCCSCC(O)COC(c1ccccc1)(c1ccccc1)c1ccccc1` (stereo not given) was tested, and the GI50 (DU-145) was > 100 µM (inactive), the GI50 (UACC-257) was 34.5 µM (inactive) and the GI50 (RPMI-8226) was 17.5 µM (inactive). The GI50 (SK-OV-3) was > 100 µM (inactive), the GI50 (MOLT-4) was 28.4 µM (inactive) and the GI50 (CCRF-CEM) was 29.7 µM (inactive). The GI50 (SF-295) was 35.3 µM (inactive), the GI50 (UACC-62) was 65.8 µM (inactive) and the GI50 (Malme-3M) was 60 µM (inactive). For the same compound, the GI50 (MDA-MB-435) was 56.4 µM (inactive), the GI50 (M14) was 61.7 µM (inactive) and the GI50 (A498) was > 100 µM (inactive). For the same compound, the GI50 (OVCAR-3) was 29.2 µM (inactive), the GI50 (UO-31) was 5.81 µM (inactive) and the GI50 (MDA-N) was 40.9 µM (inactive). The GI50 (SF-539) was > 100 µM (inactive), the GI50 (KM12) was 0.051 µM (active) and the GI50 (LOX IMVI) was 36.1 µM (inactive). The GI50 (NCI-H522) was 35.2 µM (inactive) and the GI50 (SK-MEL-5) was 23.6 µM (inactive).
